Literature values as cited in US9046534B2, “Methods and systems for identifying and treating anti-progestin sensitive tumors” (INVIVIS PHARMACEUTICALS INC., priority 2011, dated 2015).

How the values were obtained:
[1] = human subjects; an increase is an undesirable side-effect for breast cancer therapy
[2] = system: progesterone responsive genes; conditions: compared with progestins and other anti-progestins, which activate progesterone responsive genes
[3] = system: advanced breast cancer; conditions: 101 poor prognosis patients with advanced breast cancer, progressed despite prior hormonal therapy (tamoxifen)
[4] = system: breast cancer; conditions: first line hormone treatment, small breast cancer study
[5] = target: T1, PR (Homo sapiens, UniProt P06401); conditions: in vitro systems; aggregates produced by an artificial ligand bound to the PR
T1 sequence (P06401 1-933): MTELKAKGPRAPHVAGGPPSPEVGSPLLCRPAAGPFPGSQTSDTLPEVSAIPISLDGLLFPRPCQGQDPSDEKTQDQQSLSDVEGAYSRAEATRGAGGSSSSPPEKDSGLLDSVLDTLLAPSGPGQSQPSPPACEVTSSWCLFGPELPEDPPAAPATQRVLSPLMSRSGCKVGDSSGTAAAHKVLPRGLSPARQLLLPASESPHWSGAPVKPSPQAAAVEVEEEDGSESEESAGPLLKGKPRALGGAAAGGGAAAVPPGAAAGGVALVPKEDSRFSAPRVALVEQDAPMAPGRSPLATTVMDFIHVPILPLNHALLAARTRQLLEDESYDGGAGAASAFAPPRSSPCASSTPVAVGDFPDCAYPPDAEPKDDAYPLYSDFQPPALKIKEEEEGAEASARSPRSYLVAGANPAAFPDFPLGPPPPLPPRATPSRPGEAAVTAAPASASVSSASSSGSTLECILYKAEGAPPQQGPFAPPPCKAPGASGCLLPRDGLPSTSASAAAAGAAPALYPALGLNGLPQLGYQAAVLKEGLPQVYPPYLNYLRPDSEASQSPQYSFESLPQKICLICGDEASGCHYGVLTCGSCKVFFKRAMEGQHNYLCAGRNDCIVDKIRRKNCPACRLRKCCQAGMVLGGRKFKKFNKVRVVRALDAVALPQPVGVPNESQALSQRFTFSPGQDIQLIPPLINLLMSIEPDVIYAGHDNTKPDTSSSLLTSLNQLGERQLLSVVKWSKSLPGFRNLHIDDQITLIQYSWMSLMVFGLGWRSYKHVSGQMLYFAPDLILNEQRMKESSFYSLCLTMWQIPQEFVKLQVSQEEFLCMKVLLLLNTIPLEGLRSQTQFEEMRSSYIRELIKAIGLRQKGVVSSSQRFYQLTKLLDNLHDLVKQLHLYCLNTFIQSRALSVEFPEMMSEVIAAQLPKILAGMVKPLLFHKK

effect on PR nuclear aggregates [5]: reverse the PR nuclear aggregates
SMILES: CN(C)c1ccc([C@H]2C[C@]3(C)[C@@H](CC[C@]3(O)CCCO)C3CCC4=CC(=O)CCC4=C32)cc1 (stereo in doubt) [Onapristone, (8S,11R,13R,14S,17S)-11-[4-(dimethylamino)phenyl]-17-hydroxy-17-(3-hydroxypropyl)-13-methyl-1,2,6,7,8,11,12,14,15,16-decahydrocyclopenta[a]phenanthren-3-one]
effect on estrogen secretion [1]: does not increase estrogen secretion
activation of progesterone responsive genes (number of genes activated) [2]: 3 genes
response rate [3]: 10%
objective response rate [4]: 56%
